In patent US12545653B2, “Compound as PPAR agonist and application thereof” (USA Elixiria Biotech Inc., priority 2019, dated 2026):
“And” between values parts separate entries of the source, which are not always exact repeats. Equal values may be shown once.

Assays:
PPARγ = biological target: T1, PPARγ (Homo sapiens, UniProt P37231); assay: In vitro transcriptional activity of PPARγ gene (PPRE-luciferase reporter, HEK 293 T cells); assay type: cell-based; settings: HEK 293 T cells transfected with PPARγ expression and PPRE-luc plasmids, 21 hours; read-out: EC50 of PPARγ gene activation
T1 construct: expressed in transfected cells; host or cells: HEK 293 T cells
T1 sequence (P37231 1-505): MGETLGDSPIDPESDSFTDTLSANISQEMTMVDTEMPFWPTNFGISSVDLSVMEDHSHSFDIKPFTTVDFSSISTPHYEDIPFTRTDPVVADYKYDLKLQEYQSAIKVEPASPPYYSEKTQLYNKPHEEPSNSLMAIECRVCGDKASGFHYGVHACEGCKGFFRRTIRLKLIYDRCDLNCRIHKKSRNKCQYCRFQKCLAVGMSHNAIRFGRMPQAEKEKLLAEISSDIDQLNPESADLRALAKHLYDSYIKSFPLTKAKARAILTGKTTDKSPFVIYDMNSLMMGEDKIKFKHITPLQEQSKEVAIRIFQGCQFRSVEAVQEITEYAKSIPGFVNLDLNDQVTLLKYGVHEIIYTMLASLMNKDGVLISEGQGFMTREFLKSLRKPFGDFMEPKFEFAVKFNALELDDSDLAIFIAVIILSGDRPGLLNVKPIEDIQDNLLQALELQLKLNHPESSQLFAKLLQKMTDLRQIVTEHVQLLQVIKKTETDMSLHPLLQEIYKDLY
Excerpt: In this experiment, the PPARγ gene was used as target gene to detect the in vitro transcription activity of the compounds. The compounds of interest were detected was first dissolved with dimethyl sulfoxide (DMSO). […] First two plasmids were constructed: PPARγ protein expression plasmid and luciferase reporter plasmid. They are both from the lentiviral plasmid pLV-CMVIE-ZsGreen-Puro, whose DNA sequence contains the cytomegalovirus immediate early (CMVie) promoter, ZsGreen and Puro dual reporter. The PPARγ expression plasmid pLV-CMVIE-PPAR[…]-ZsGreen-Puro was constructed by cloning full-length coding sequences of the pertinent receptors into pHBLV-CMVIE-ZsGreen-Puro vector. To construct the luciferase (luc) reporter plasmid pLV-PPRE-luc-ZsGreen-Puro, the CMVie promoter in plasmid pHBLV-CMVIE-ZsGreenPuro was first replaced by a peroxisome proliferator responsive element (PPRE) containing fragments comprised the nucleotide sequence 50-[…], repeated four times in tandem, to generate a new plasmid, at a multiple cloning site of which the luc gene was then inserted. […] The compounds used for screening are representatives for compounds listed in Table 2, and Tables 3 of the present invention. […] Cells were distributed in 10-cm tissue culture plates at a density of 5.5 million cells per plate, and then transfected with the luciferase reporter plasmid (6 nanogram/plate) and the PPARγ expression plasmid (18 nanogram/plate). Cells were cultured for 6 hours. […] Then the cells were distributed in 96-well plates at a density of 20,000 cells per well. After incubation for 6 h, compounds or control with different concentration were placed into each well, resulting in the finical concentration of […] with each concentration in triplicate. Twenty-one hours later, promoter activation was detected by the addition of SteadyLite (PerkinElmer, Waltham, MA) and GloMax 96 Microplate Luminometer (Promega, Madison, WI). The amount of Luminometer emitted from each well is positively correlated with the expression of PPARγ gene. A three-parameter Sigmoid function curve was used to fit the obtained data. The abscissa represents the logarithmic value of the concentration, and the ordinate represents the percentage of PPARγ gene activation relative to those of the control. […] In Statistical analysis, the coefficient of variation is used to measure the robustness and repeatability of the experiment. […] The difference is significant with P<0.05. EC50 is a parameter of its activity.

klotho gene = assay: In vivo brain transcriptional activity of klotho gene (RT-PCR of brain mRNA); set-up: species or system mouse; settings: 10 mg/kg body weight/day tail vein; for mRNA level of klotho gene in the brain of the mouse relative to vehicle control group: after 10 days of continuous injection; for fold induction at 10 mg/kg: Mus musculus, iv, 720 h, after 30 days of continuous injection, read-out: mRNA level of klotho gene in the brain of the mouse relative to vehicle control group
Protocol: To verify this hypothesis, adult male Kunming mice were used in the experiments. […] The injection volume is 8 ml/kg body weight. Dimethyl sulfoxide (DMSO) was used as a vehicle control of the compounds. […] The RNA was then reverse-transcribed to the cDNA, and quantified by SYBR Green fluorescence quantitative PCR kit (HaiGene) and a quantitative PCR system (Bio-Rad Min-Opticon Type 2) were used for real-time fluorescent quantitative polymerase chain reaction (RT-PCR). The mouse gene primers were design as follows: • KLOTHO-forward 5′-[…]-3′; • LOTHO-reverse 5′-[…]-3′; • GAPDH-forward 5′-[…]-3′; • GAPDH-reverse 5′-[…]-3′.
Data analysis was performed using the 2^−ΔΔct method. Semi-quantitative values of gene expression were then normalized by the control mean.

klotho gene promoter = assay: In vitro transcriptional activity of klotho gene (KL-Luc-3 luciferase cell line); assay type: cell-based; settings: 16 h, KL-Luc-3 cells, 16 hours incubation
Excerpt: The activities of these carbonyl-containing cyclic compounds are indicated by the increased expression of klotho gene. […] The present invention retains the DNA fragment of the klotho gene promoter, but replaces the DNA sequence of the coding region of the klotho gene with those of luciferase, so that the degree of activation of the klotho gene promoter and the expression of the klotho gene will be sensitively determined by detecting the luciferase luminescence signal.
Klotho is an important downstream gene of PPARγ pathway. The following experiments tested the properties of the compounds in Table 2 and 3 to activate the klotho gene in vitro. First, a stable cell line, KL-Luc, was constructed. The klotho gene carried by the cell line retained the DNA sequence of klotho gene promoter, but the coding sequence of the klotho gene was replaced with luciferase. KL-Luc fragment includes a promoter sequence of the klotho gene (a DNA region of 18,000 base pairs in length upstream of the transcription start site of the gene) and a luciferase-encoding sequence. To construct the KL-Luc sequence containing lentiviral vector, the KL-Luc fragment was cloned into the pDONR vector using BP recombinase, so that the target fragment had attL recombination sites on both sides. Then the KL-Luc fragment was transferred from the pDONR vector to a lentiviral vector (without exogenous promoter) pLenti6/BLOCK-IT-DEST. The constructed lentiviral vector of the target fragment was then transfected into HEK293T cells, and then the KL-Luc gene lentiviral expression vector and the […] were co-transfected into HEK293T cells to perform lentiviral packaging. The virus was harvested, and virus titer was calculated. And the lentivirus was used to infect target cells. The stable strains were screened by adding drugs. Finally, monoclonal cell lines were selected from polyclonal cells by cell cloning. The effective luciferase expression of each monoclonal cell line was determined by quantitative polymerase chain reaction (qPCR). The inventors chose a third monoclonal cell line (KL-Luc-3) to continue the compound screening. The compounds of interest were the compounds in Table 2 and 3. At the same time, rosiglitazone and pioglitazone were used as a control. KL-Luc-3 cells were divided into 96-well plates at 5000 cells in 80 microL per well, cultured in a 37° C. carbon dioxide incubator with serum-free Duchenne's Modified Eagle's Medium (DMEM) for 6 hours, and then the compounds were added to a final concentration of 0, 0.1, 0.3, 1, 3, 10, 30 micromole/L, with each concentration in triplicate. After 16 hours of incubation, the SteadyLite (PerkinElmer, Waltham, MA) and the GloMax Microplate Luminometer (Promega, USA) were used for quantitation of luciferase activity. The amount of luminescence emitted from each well is positively related to the transcriptional activity of the klotho promoter. A three-parameter Sigmoid function curve was used to fit the obtained data. The abscissa represents the logarithmic value of the concentration, and the ordinate represents the percentage of the activity relative to those of the control. […] In Statistical analysis, the coefficient of variation is used to measure the robustness and repeatability of the experiment. […] The difference is significant with P<0.05. EC50 is a parameter of its activity. The lower the EC50 value, the higher the activity of corresponding compound.

APP/PS1 transgenic mice = assay: Alzheimer's disease model, eight-arm radial water maze and brain gene expression; assay type: in vivo, mouse; settings: 30 days in food, 10 mg/kg body weight/day (donepezil 3 mg/kg body weight/day), 5 on the first day
Excerpt: A common indicator used in academia in memory and dementia experiments is the number of errors in the water maze (reference memory). More errors mean poorer memory. On the last 3 days of dosing, eight-arm radial water maze was used by experimenters who were blind to drug treatment. As a classic experimental instrument, to detect slight deficits in learning and memory, the eight-arm water maze is more sensitive than not only Morris maze, but also Six-arm radial water maze. For details, see reference 8: Alamed J et al. Two-day radial-arm water maze learning and memory task; robust resolution of amyloid-related memory deficits in transgenic mice [J]. […] This experiment uses an eight-arm water maze built in accordance with the above literature. The eight-arm water maze is placed in a basin with an interior diameter of 102 cm. Each arm measures 30 cm long, 14.5 cm wide, and 40 cm high. Escape platform is located at the end of one of the arms. In the reference memory version of the task described here, the goal arm is held constant for all trials, with a different start arm on successive trials. On day one, mice received 12 trials, with trials alternating between visible and hidden platform. On day 2 and 3, mice received 12 additional trials but the platform was kept hidden throughout the trials. Entry into an incorrect arm was scored as a spatial reference error. Errors were averaged into three trial blocks, with four blocks per day, e.g., the first block (the 1st to 3rd trial), the second block (the 4th to 6th trial), and so on. […]. The line charts were made with the number of blocks as the abscissa and the average of the number of errors as the ordinate. At the end of the experiments, the cerebral cortex and hippocampus of the mice were removed, RNA was extracted, and the expression of many genes was analyzed by semi-quantitative RT-PCR. […] The difference is significant with P<0.05.

db−/db− mice = assay: Diabetic peripheral neuropathy model, Von Frey threshold, sciatic nerve ROS and MDA; assay type: in vivo, mouse; settings: in food 10 mg/kg body weight/day (pregabalin 30 mg/kg body weight/day); for level of MDA in the sciatic nerve after 10 week treatment / level of mitochondrial ROS in the sciatic nerve after 10 week treatment: compared with healthy control group; for mechanical pain threshold after 10 week treatment: compared with normal control group
Protocol: Male 5-6 week-old male db^−/db^− mice were used in the experiment, and their normoglycemic heterozygous littermates were used as controls. db^−/db^− is a commonly used type 2 diabetes animal model. The compounds was dissolved in DMSO and mixed into food pellets. The animals were given ad libitum access to the pellets, beginning from 8 to 9 weeks of age for 10 weeks. […] The method for detecting mice hindlimb hypersensitivity is performed using Von Frey filaments. […] The difference is significant with P<0.05. The increase of mitochondrial reactive oxygen species (ROS) in the sciatic nerve of mice, which in turn leads to the increase of intracellular malondialdehyde (MDA), is the etiology of this type of neuropathic pain. The efficacy of compound to treat the root cause of the disease was evaluated by measurement of the levels of MDA and mitochondrial ROS from the sciatic nerves.

[1] = tested on: dIoN-CCI rat model of trigeminal neuropathic pain; assay: Trigeminal neuralgia model (dIoN-CCI), Von Frey mechanical threshold; settings: dIoN-CCI rats

SMILES | EC50 (PPARγ) | mRNA level of klotho gene in the brain of the mouse relative to vehicle control group (klotho gene) | fold induction at 10 mg/kg (klotho gene) | other results
CCc1ccc(CCCCc2ccc3c(c2)NC(=O)CC3)cc1 [ELB00702, 7-(4-(4-ethylphenyl)butyl)-3,4-dihydroquinolin-2(1H)-one] | < 6.4 µM and 3.1 µM | more than twice | > 5 | 
CCc1ccc(CCCCc2ccc3c(c2)OCCC(=O)N3)cc1 [ELB00827, 8-(4-(4-ethylphenyl)butyl)-2,3-dihydrobenzo[b][1,4]oxazepin-4(5H)-one] | < 6.4 µM | more than twice | > 5 | EC50 (klotho gene promoter): < 9.7 µM
CCc1ccc(CC/C=C/c2ccc3c(c2)NC(=O)CO3)cc1 [ELB00993, (E)-6-(4-(4-ethylphenyl)but-1-en-1-yl)-2H-benzo[b][1,4]oxazin-3(4H)-one] | < 6.4 µM | more than twice | > 5 | 
CCc1ccc(CC/C=C/c2ccc3c(c2)C(=O)CCO3)cc1 [ELB001080, (E)-6-(4-(4-ethylphenyl)but-1-en-1-yl)chroman-4-one] | < 6.4 µM |  |  | number of errors in water maze on the third day (APP/PS1 transgenic mice): comparable to that of ELB00824; level of MDA in the sciatic nerve after 10 week treatment (db−/db− mice): reduced; level of mitochondrial ROS in the sciatic nerve after 10 week treatment (db−/db− mice): reduced; mechanical pain threshold after 10 week treatment (db−/db− mice): significantly improved
CCc1ccc(C/C=C/c2cccc(CC3NCC(=O)N3)c2)cc1 (centres unmarked) [ELB001090, (E)-2-(3-(3-(4-ethylphenyl)prop-1-en-1-yl)benzyl)imidazolidin-4-one] | < 6.4 µM and 3.9 µM | more than twice |  | EC50 (klotho gene promoter): < 9.7 µM
NCC1(CC(=O)O)CCCCC1 [gabapentin, reference compound] |  |  |  | side effect at the time of administration [1]: drowsiness; duration of the anti-allodynic effect ([1]; oral gabapentin group (1 mg/kg body weight)): 1 h
CC(C)C[C@H](CN)CC(=O)O [pregabalin, reference compound] |  |  |  | level of MDA in the sciatic nerve after 10 week treatment (db−/db− mice): significantly higher; level of mitochondrial ROS in the sciatic nerve after 10 week treatment (db−/db− mice): significantly higher; mechanical pain threshold after 10 week treatment (db−/db− mice): no difference
